Where no end group is shown, it is not given here.
Legend:
[1] = system: glycan-specific, HIV-1 gp120 NAb, 2G12; experiment: M13 Binding ELISA, assay control NAb 2G12; conditions: control NAb 2G12 coated 1 μg/well; > 2.5E+9 = no binding
HIV-1 PSVs = experiment: TZMbl neutralization assay of immunized mouse sera; conditions: animals immunized with mimotopes alone; TZMbl and PBMC assays, Fig. 5

| Substance | Binding Titer (M13/ml) 2G12 [1] [M13/ml] | neutralizing responses of sera (HIV-1 PSVs) |
| --- | --- | --- |
| NWFDRSHTLFHS [4E10 PhD 12–3] | > 2.5E+9 | – |
| SEMDDKWAKMKI [2F5 PhD 12–2] | > 2.5E+9 | – |
| MELDKWA (disulfide (positions not given here)) [2F5 PhD c7c-1] | > 2.5E+9 | – |
| GYWSDYWGMTTH [4E10 PhD 12–7] | > 2.5E+9 | detectable, low titer neutralizing responses |
| DKWASFD (disulfide (positions not given here)) [2F5 PhD c7c-2] | > 2.5E+9 | – |
| LPNWFNLSSNLM [4E10 PhD 12–11] | > 2.5E+9 | detectable, low titer neutralizing responses |
| QHWNYFDLSEQQ [Z13 PhD 12–2] | > 2.5E+9 | – |
| QSYNWFDHTRWI [4E10 PhD 12–8] | > 2.5E+9 | – |
| SVSVGMKPSPRP [4E10 PhD 12–2] | > 2.5E+9 | – |
| HNSQNLDRWAII [2F5 PhD 12–1] | > 2.5E+9 | – |
| ERMLFEW (disulfide (positions not given here)) [4E10 PhD c7c-2] | > 2.5E+9 | – |
| TLDIFRN (disulfide (positions not given here)) [4E10 PhD c7c-3] | > 2.5E+9 | – |
| SHTLNFLDLTST [Z13 PhD 12–1] | > 2.5E+9 | – |
| NWFDGTTTLWHR [4E10 PhD 12–4] | > 2.5E+9 | – |
| NWFNLTQTLMPR [4E10 PhD 12–1] | > 2.5E+9 | – |
| GPILANYSDITN [Z13 PhD 12–3] | > 2.5E+9 | – |
| TNFFELTTKLHR [4E10 PhD 12–10] | > 2.5E+9 | – |
| PFGFELW (disulfide (positions not given here)) [Z13 PhD c7c-2] | > 2.5E+9 | – |
| SEELDKWYNTLT [2F5 PhD 12–3] | > 2.5E+9 | – |
| SIFDWPR (disulfide (positions not given here)) [4E10 PhD c7c-1] | > 2.5E+9 | – |
| NFWELSKYLHMA [4E10 PhD 12–9] | > 2.5E+9 | – |
| DMRSIFHDNPFN [4E10 PhD 12–6] | > 2.5E+9 | – |
| ALCLGPR (disulfide (positions not given here)) [Z13 PhD c7c-1] | > 2.5E+9 | – |
| YFFDRSS (disulfide) [4E10 PhD c7c-4] | > 2.5E+9 | – |
